Source: patent US20190225650A1, “PEPTIDOMIMETIC MACROCYCLES AND USE THEREOF IN REGULATING HIF1ALPHA” (AILERON THERAPEUTICS, INC., priority 2013, published 2019)
Bridge positions count the residues as written; N and C are the ends. Square brackets hold non-standard residues; d marks the D form. Peptide text beside a SMILES is read from it. R8 = C=CCCCCCC[C@@](C)(N)C(=O)O; S5 = C=CCCC[C@](C)(N)C(=O)O; Nle = CCCC[C@H](N)C(=O)O

How the values were obtained:
[1] = biological target: T1, flag-tagged HIF1α (AA 786-826) / His6-tagged p300 (AA 323-423) complex (Homo sapiens, UniProt Q09472); assay: HIF1α p300 displacement assay (TR FRET, +CHAPS); type: binding; settings: read-out: IC50 (nM) (HIF1α_p300 Displacement + CHAPS)
T1 construct: His6-tagged p300 (AA 323-423); made in house; host or cells: E. coli (pETDuet vector)
Procedure, shortened: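 The co-expressed flag-HIF1α (786-826)/His6-p300 (323-423) complex, purified from E. coli with 0.1 mM ZnSO4, was used at 300 nM final with competitor peptides for 1 h at room temperature. Buffer was 150 mM NaCl, 20 mM HEPES pH 7.4, 7.5 mM CHAPS and 1 mM DTT. Anti-Flag-K (0.5 μM) and anti-His-D2 (4 nM) were then added for 2 h, and IC50s were fitted from the TR-FRET ratio.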

HRE-bla ME-180 cells [2] = assay: Cell proliferation assay (viability, MTT, 1% FBS); type: cell-based, human
Procedure, shortened: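 ME-180 cells (2×10^4/well) in Opti-MEM with 1% FBS were pretreated 16 h under normoxia (21% O2), vehicle 0.5% DMSO final. Incubation then continued under normoxia or hypoxia (1% O2); viable cells quantified by MTT-type CellTiter 96 assay.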

HRE-bla ME-180 cells [3] = assay: Reporter gene assay (HRE-bla ME-180 HIF reporter, GeneBLAzer); type: cell-based, human; settings: for EC50: 24 hour normoxia
Procedure, shortened: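 A FRET β-lactamase readout of HIF transcription was used. After compound treatment in 0.3% DMSO/media under normoxic conditions, 20 μl of 6× LiveBLAzer-FRET B/G (CCF4-AM) substrate was added. Plates sat 3 hr at room temperature in the dark and were read at 409 Ex/460Em and 409Ex/530Em on a Synergy 2. Inhibition was compared against DMSO vehicle controls, with chetomin as positive control.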

T1 sequence (Q09472 323-423, one chain of several): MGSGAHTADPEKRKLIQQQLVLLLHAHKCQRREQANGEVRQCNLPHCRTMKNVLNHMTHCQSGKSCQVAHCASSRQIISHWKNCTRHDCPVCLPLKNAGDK

Structure (SMILES) | IC50 [1] [nM] | Viability 1% FBS AVG (MTT V3-24 hr Normoxia) (μM) (HRE-bla ME-180 cells [2]) | 18 h Avg % max inhibition at top conc (HIF Rptr-24 hrs normoxia) (μM) (HRE-bla ME-180 cells [3]) | EC50 (HRE-bla ME-180 cells [3]) [µM]
CCCC[C@H](NC(=O)[C@]1(C)CCCC=CCCC[C@](C)(NC(=O)[C@H](CCCC)NC(=O)[C@H](CC(C)C)NC(=O)[C@@H](NC(=O)[C@H](C)NC(=O)[C@H](CCC(=O)O)NC(=O)[C@H](CC(=O)O)NC(=O)[C@@H](NC(=O)[C@H](CC(N)=O)NC(=O)[C@@H](NC(=O)[C@]2(C)CCCC=CCCCCCC[C@@](C)(NC(=O)[C@H](CCC(=O)O)NC(=O)CNC(=O)[C@H](CCC(N)=O)NC(=O)[C@H](CC(C)C)NC(=O)[C@H](CC(C)C)NC(C)=O)C(=O)N[C@@H](CC(C)C)C(=O)N[C@@H](CC(C)C)C(=O)N[C@@H](CCCNC(=N)N)C(=O)N[C@@H](C)C(=O)N[C@@H](CC(C)C)C(=O)N[C@@H](CC(=O)O)C(=O)N2)C(C)C)[C@@H](C)CC)C(C)C)C(=O)N[C@@H](CC(C)C)C(=O)N[C@@H](C(C)C)C(=O)N[C@@H]([C@@H](C)CC)C(=O)N1)C(N)=O [SP-347] (Ac-LLQGE[R8]LLRALD[S5]VNIDEAVL[Nle][S5]LVI[S5][Nle]-NH2; staple 6-13, 23-27) | 400 to 700 | ++++ (≥30: ++++) | +++ (≤25 but <50: +++) | > 30
CCCC[C@H](NC(=O)[C@H](CCC(=O)O)NC(=O)[C@]1(C)CCCC=CCCCCCC[C@@](C)(NC(=O)[C@H](CCC(=O)O)NC(=O)[C@H](CC(=O)O)NC(=O)[C@@H](NC(=O)[C@H](CC(N)=O)NC(=O)[C@@H](NC(=O)[C@]2(C)CCCC=CCCCCCC[C@@](C)(NC(=O)[C@H](CCC(=O)O)NC(C)=O)C(=O)N[C@@H](CC(C)C)C(=O)N[C@@H](CC(C)C)C(=O)N[C@@H](CCCNC(=N)N)C(=O)N[C@@H](C)C(=O)N[C@@H](CC(C)C)C(=O)N[C@@H](CC(=O)O)C(=O)N2)C(C)C)[C@@H](C)CC)C(=O)N[C@@H](C(C)C)C(=O)N[C@@H](CC(C)C)C(=O)N[C@@H](CCCC)C(=O)N[C@@H](CO)C(=O)N[C@@H](CC(C)C)C(=O)N[C@@H](C(C)C)C(=O)N1)C(N)=O [SP-358] (Ac-E[R8]LLRALD[S5]VNIDE[R8]VL[Nle]SLV[S5]E[Nle]-NH2; staple 2-9, 15-22) | 200 to 400 | ++++ (≥30: ++++) | + (<10: +) | > 30
CCCC[C@H](NC(=O)[C@H](CC(C)C)NC(=O)[C@@H](NC(=O)[C@H](CCC(=O)O)NC(=O)[C@H](CCC(=O)O)NC(=O)[C@H](CC(=O)O)NC(=O)[C@@H](NC(=O)[C@H](CC(N)=O)NC(=O)[C@@H](NC(=O)[C@H](CCC(N)=O)NC(=O)[C@]1(C)CCCC=CCCC[C@](C)(NC(=O)[C@H](CC(C)C)NC(=O)[C@H](CCC(=O)O)NC(=O)[C@H](CCC(=O)O)NC(=O)CNC(=O)[C@H](CCC(N)=O)NC(=O)[C@H](CC(C)C)NC(=O)[C@H](CC(C)C)NC(C)=O)C(=O)N[C@@H](CCCNC(=N)N)C(=O)N[C@@H](C)C(=O)N[C@@H](CC(C)C)C(=O)N1)C(C)C)[C@@H](C)CC)C(C)C)C(=O)N[C@@]1(C)CCCC=CCCC[C@@](C)(C(=O)N[C@@H](CCCC)C(=O)NCC(N)=O)NC(=O)[C@H]([C@@H](C)CC)NC(=O)[C@H](C(C)C)NC(=O)[C@H](CC(C)C)NC1=O [SP-308] (Ac-LLQGEEL[S5]RAL[S5]QVNIDEEVL[Nle][S5]LVI[S5][Nle]G-NH2; staple 8-12, 23-27) | 200 to 400 | ++++ (≥30: ++++) | ++++ (≥50: ++++) | 15 to 30
CCCC[C@H](NC(=O)[C@H](CC(C)C)NC(=O)[C@@H](NC(=O)[C@H](CCC(=O)O)NC(=O)[C@H](CCC(=O)O)NC(=O)[C@H](CC(=O)O)NC(=O)[C@@H](NC(=O)[C@H](CC(N)=O)NC(=O)[C@@H](NC(=O)[C@H](CCC(N)=O)NC(=O)[C@H](CC(=O)O)NC(=O)[C@]1(C)CCCC=CCCC[C@](C)(NC(=O)[C@H](CCC(=O)O)NC(=O)[C@H](CCC(=O)O)NC(=O)CNC(=O)[C@H](CCC(N)=O)NC(=O)[C@H](CC(C)C)NC(=O)[C@H](CC(C)C)NC(C)=O)C(=O)N[C@@H](CC(C)C)C(=O)N[C@@H](CCCNC(=N)N)C(=O)N[C@@H](C)C(=O)N1)C(C)C)[C@@H](C)CC)C(C)C)C(=O)N[C@@]1(C)CCCC=CCCC[C@@](C)(C(=O)N[C@@H](CCCC)C(=O)NCC(N)=O)NC(=O)[C@H]([C@@H](C)CC)NC(=O)[C@H](C(C)C)NC(=O)[C@H](CC(C)C)NC1=O [SP-339] (Ac-LLQGEE[S5]LRA[S5]DQVNIDEEVL[Nle][S5]LVI[S5][Nle]G-NH2; staple 7-11, 23-27) | 200 to 400 | ++++ (≥30: ++++) | + (<10: +) | > 30
CCCC[C@H](NC(=O)[C@H](CCC(=O)O)NC(=O)[C@@H](NC(=O)[C@@H](NC(=O)[C@H](CC(C)C)NC(=O)[C@]1(C)CCCC=CCCC[C@](C)(NC(=O)[C@H](CCC(=O)O)NC(=O)[C@H](CC(=O)O)NC(=O)[C@@H](NC(=O)[C@H](Cc2ccccc2)NC(C)=O)[C@@H](C)CC)C(=O)N[C@@H](CC(N)=O)C(=O)N[C@@H](CC(C)C)C(=O)N[C@@H](CCCC)C(=O)N1)C(C)C)[C@@H](C)CC)C(=O)N[C@@H](C)C(=O)N[C@@H](CC(C)C)C(N)=O [SP-141] (Ac-FIDE[S5]NL[Nle][S5]LVIE[Nle]AL-NH2; staple 5-9) | 400 to 700 | ++ (≤5 but <15: ++) | ++++ (≥50: ++++) | 15 to 30
CCCC[C@H](NC(=O)[C@]1(C)CCCC=CCCC[C@](C)(NC(=O)[C@H](CCCC)NC(=O)[C@H](CC(C)C)NC(=O)[C@@H](NC(=O)[C@H](CCC(=O)O)NC(=O)[C@H](C)NC(=O)[C@H](CC(=O)O)NC(=O)[C@@H](NC(=O)[C@H](CC(N)=O)NC(=O)[C@@H](NC(=O)[C@]2(C)CCCC=CCCCCCC[C@@](C)(NC(=O)[C@H](CCC(=O)O)NC(=O)CNC(=O)[C@H](CCC(N)=O)NC(=O)[C@H](CC(C)C)NC(=O)[C@H](CC(C)C)NC(C)=O)C(=O)N[C@@H](CC(C)C)C(=O)N[C@@H](CC(C)C)C(=O)N[C@@H](CCCNC(=N)N)C(=O)N[C@@H](C)C(=O)N[C@@H](CC(C)C)C(=O)N[C@@H](CC(=O)O)C(=O)N2)C(C)C)[C@@H](C)CC)C(C)C)C(=O)N[C@@H](CC(C)C)C(=O)N[C@@H](C(C)C)C(=O)N[C@@H]([C@@H](C)CC)C(=O)N1)C(N)=O [SP-346] (Ac-LLQGE[R8]LLRALD[S5]VNIDAEVL[Nle][S5]LVI[S5][Nle]-NH2; staple 6-13, 23-27) | ≤ 200 | ++++ (≥30: ++++) | ++ (≤10 but <25: ++) | > 30
CCCC[C@H](NC(=O)[C@]1(C)CCCC=CCCC[C@](C)(NC(=O)[C@H](CCCC)NC(=O)[C@H](CC(C)C)NC(=O)[C@@H](NC(=O)[C@H](CCC(=O)O)NC(=O)[C@H](CCC(=O)O)NC(=O)[C@H](CC(=O)O)NC(=O)[C@@H](NC(=O)[C@H](CC(N)=O)NC(=O)[C@@H](NC(=O)[C@H](CCC(N)=O)NC(=O)[C@H](CC(=O)O)NC(=O)[C@H](CC(C)C)NC(=O)[C@H](C)NC(=O)[C@H](CCCNC(=N)N)NC(=O)[C@H](CC(C)C)NC(=O)[C@H](CC(C)C)NC(=O)[C@H](CCC(=O)O)NC(=O)[C@H](CCC(=O)O)NC(=O)CNC(=O)[C@H](CCC(N)=O)NC(=O)[C@H](CC(C)C)NC(=O)[C@H](CC(C)C)NC(C)=O)C(C)C)[C@@H](C)CC)C(C)C)C(=O)N[C@@H](CC(C)C)C(=O)N[C@@H](C(C)C)C(=O)N[C@@H]([C@@H](C)CC)C(=O)N1)C(N)=O [SP-335] (Ac-LLQGEELLRALDQVNIDEEVL[Nle][S5]LVI[S5][Nle]-NH2; staple 23-27) | 400 to 700 | ++++ (≥30: ++++) | + (<10: +) | > 30
CC[C@H](C)[C@H](NC(=O)[C@H](CCCNC(=N)N)NC(=O)[C@H](CC(=O)O)NC(=O)[C@H](CC(C)C)NC(=O)[C@H](C)NC(=O)[C@H](CCSC)NC(=O)[C@]1(C)CCCC=CCCC[C@](C)(NC(=O)[C@H](CCSC)NC(=O)[C@H](CC(C)C)NC(=O)[C@@H](NC(=O)[C@H](Cc2c[nH]cn2)NC(=O)[C@H](CCC(=O)O)NC(=O)[C@H](CC(N)=O)NC(=O)[C@@H](NC(=O)[C@H](Cc2ccccc2)NC(C)=O)[C@@H](C)CC)C(C)C)C(=O)N[C@@H](CC(C)C)C(=O)N[C@@H](C(C)C)C(=O)N[C@@H]([C@@H](C)CC)C(=O)N1)C(N)=O [SP-286] (Ac-FINEHVLM[S5]LVI[S5]MALDRI-NH2; staple 9-13) | > 700 | ++++ (≥30: ++++) | ++ (≤10 but <25: ++) | > 30
